Test system: Protoporphyrinogen IX Oxidase (PPO) R128L
Type: cell-based, Amaranthus tuberculatus

| SMILES | Tolerance factor |
| --- | --- |
| C#CCN1C(=O)C(F)(F)Oc2cc(F)c(-n3c(=O)n(C)c(=S)n(C)c3=O)cc21 [BAS 850H] | 28.7 |
| CC(C)N(C)S(=O)(=O)NC(=O)c1cc(-n2c(=O)cc(C(F)(F)F)n(C)c2=O)c(F)cc1Cl [Saflufenacil] | 170 |
